Results published in patent US20260217701A1, “SELECTIVE BET INHIBITORS AND USES THEREOF” (Tay Therapeutics Limited, priority 2022, published 2026).
“And” between values parts separate entries of the source, which are not always exact repeats. Equal entries are not always repeated.

Tested on: imiquimod-induced psoriasis
Assay: Imiquimod-induced psoriasis model
Format: in vivo, mice
Parameters: Spleen Weight / Spleen Weight Ratio: unit not given here
Details: for Mean scores of the presence of erythema on the skin of animals at the area of induction of psoriasis / Mean scores of the presence of induration on the skin of animals at the area of induction of psoriasis / Mean scores of the presence of peeling on the skin of animals at the area of induction of psoriasis: mean ± SEM
Outline: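 Mice given topical imiquimod (5% cream) daily on depilated backs Days 1–14; Compound A in 5% DMSO/40% PEG-400/55% saline from Day 8, clobetasol topical as reference. Daily PASI (erythema, induration, peeling, each 0–4, summed) Days 8–15; spleen weight, open-field behaviour, serum IL-1B, IL-6, IL-17, TNF-α, IL-22, IL-23 at Day 15.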

[1] = IMI-psoriasis model, mice, 1 mg/kg, individual animals
[2] = IMI-psoriasis model, mice, 3 mg/kg, individual animals
[3] = IMI-psoriasis model, mice, 10 mg/kg, individual animals
[4] = IMI + 1 mg/kg, D8 (before start of treatment)
[5] = IMI + 3 mg/kg, D8 (before start of treatment)

Cn1cc(-c2ccccc2)c(-c2cn(C)c(=O)c3[nH]c(-c4cnn(C(F)(F)F)c4)cc23)cc1=O [Compound A, 6-methyl-4-(1-methyl-2-oxo-5-phenyl-1,2-dihydropyridin-4-yl)-2-(1-(trifluoromethyl)-1H-pyrazol-4-yl)-1,6-dihydro-7H-pyrrolo[2,3-c]pyridin-7-one]
Use Enrichment Mean D8-D15 (IMI-psoriasis model, mean D8-D15, 10 mg/kg, per cage (two animals)): 2.86 and 3.86 and 3.50 and 3.14 | Spleen Weight [1]: 219.42 and 202.00 and 212.50 and 233.20 and 220.14 and 227.26 and 202.76 and 213.15 | Spleen Weight Ratio [1]: 1394.03 and 1137.39 and 1273.22 and 1367.74 and 1289.63 and 1310.61 and 1176.78 and 1298.90 | Spleen Weight [2]: 199.90 and 205.09 and 178.46 and 185.94 and 214.46 and 180.80 and 187.63 and 151.76 | Spleen Weight Ratio [2]: 1084.06 and 1245.23 and 967.79 and 1175.35 and 1265.25 and 1069.19 and 1163.24 and 921.43 | Spleen Weight [3]: 156.01 and 178.03 and 139.03 and 157.80 and 191.54 and 195.58 and 151.42 and 172.86 | Spleen Weight Ratio [3]: 939.82 and 1083.57 and 757.66 and 813.82 and 1075.46 and 1071.08 and 902.92 and 1083.08 | cytokine levels (IL-17, IL-22, IL-1β, IL-6, TNF-α, IL-23) relative to vehicle (all tested doses): marked reduction of all cytokines assayed | Spleen Weight Ratio (day 15, 1, 3, 10 mg/kg): dose-dependent decrease | Mean scores of the presence of erythema on the skin of animals at the area of induction of psoriasis [4]: 2.0 ± 0.0 | Mean scores of the presence of induration on the skin of animals at the area of induction of psoriasis [4]: 2.6 ± 0.2 | Mean scores of the presence of peeling on the skin of animals at the area of induction of psoriasis [4]: 2.6 ± 0.2 | Mean scores of the presence of erythema on the skin of animals at the area of induction of psoriasis (IMI + 1 mg/kg, D9): 2.0 ± 0.3 | Mean scores of the presence of induration on the skin of animals at the area of induction of psoriasis (IMI + 1 mg/kg, D9): 2.4 ± 0.2 | Mean scores of the presence of peeling on the skin of animals at the area of induction of psoriasis (IMI + 1 mg/kg, D9): 2.6 ± 0.2 | Mean scores of the presence of erythema on the skin of animals at the area of induction of psoriasis (IMI + 1 mg/kg, D10): 1.75 ± 0.2 | Mean scores of the presence of induration on the skin of animals at the area of induction of psoriasis (IMI + 1 mg/kg, D10): 2.1 ± 0.2 | Mean scores of the presence of peeling on the skin of animals at the area of induction of psoriasis (IMI + 1 mg/kg, D10): 2.1 ± 0.1 | Mean scores of the presence of erythema on the skin of animals at the area of induction of psoriasis (IMI + 1 mg/kg, D11): 1.9 ± 0.1 | Mean scores of the presence of induration on the skin of animals at the area of induction of psoriasis (IMI + 1 mg/kg, D11): 2.0 ± 0.3 | Mean scores of the presence of peeling on the skin of animals at the area of induction of psoriasis (IMI + 1 mg/kg, D11): 1.9 ± 0.2 | Mean scores of the presence of erythema on the skin of animals at the area of induction of psoriasis (IMI + 1 mg/kg, D12): 1.5 ± 0.2 | Mean scores of the presence of induration on the skin of animals at the area of induction of psoriasis (IMI + 1 mg/kg, D12): 1.6 ± 0.2 | Mean scores of the presence of peeling on the skin of animals at the area of induction of psoriasis (IMI + 1 mg/kg, D12): 1.3 ± 0.2 | Mean scores of the presence of erythema on the skin of animals at the area of induction of psoriasis (IMI + 1 mg/kg, D13): 0.5 ± 0.2 | Mean scores of the presence of induration on the skin of animals at the area of induction of psoriasis (IMI + 1 mg/kg, D13): 1.5 ± 0.2 | Mean scores of the presence of peeling on the skin of animals at the area of induction of psoriasis (IMI + 1 mg/kg, D13): 1.1 ± 0.1 | Mean scores of the presence of erythema on the skin of animals at the area of induction of psoriasis (IMI + 1 mg/kg, D14): 0.3 ± 0.2 | Mean scores of the presence of induration on the skin of animals at the area of induction of psoriasis (IMI + 1 mg/kg, D14): 0.9 ± 0.2 | Mean scores of the presence of peeling on the skin of animals at the area of induction of psoriasis (IMI + 1 mg/kg, D14): 1.0 ± 0.0 | Mean scores of the presence of erythema on the skin of animals at the area of induction of psoriasis (IMI + 1 mg/kg, D15): 0.0 ± 0.0 | Mean scores of the presence of induration on the skin of animals at the area of induction of psoriasis (IMI + 1 mg/kg, D15): 0.5 ± 0.2 | Mean scores of the presence of peeling on the skin of animals at the area of induction of psoriasis (IMI + 1 mg/kg, D15): 0.7 ± 0.2 | Mean scores of the presence of erythema on the skin of animals at the area of induction of psoriasis [5]: 1.9 ± 0.1 | Mean scores of the presence of induration on the skin of animals at the area of induction of psoriasis [5]: 2.5 ± 0.2 | Mean scores of the presence of peeling on the skin of animals at the area of induction of psoriasis [5]: 2.3 ± 0.2 | Mean scores of the presence of erythema on the skin of animals at the area of induction of psoriasis (IMI + 3 mg/kg, D9): 1.6 ± 0.2 | Mean scores of the presence of induration on the skin of animals at the area of induction of psoriasis (IMI + 3 mg/kg, D9): 2.6 ± 0.2 | Mean scores of the presence of peeling on the skin of animals at the area of induction of psoriasis (IMI + 3 mg/kg, D9): 2.5 ± 0.2 | Mean scores of the presence of erythema on the skin of animals at the area of induction of psoriasis (IMI + 3 mg/kg, D10): 1.4 ± 0.2 | Mean scores of the presence of induration on the skin of animals at the area of induction of psoriasis (IMI + 3 mg/kg, D10): 2.1 ± 0.1 | Mean scores of the presence of peeling on the skin of animals at the area of induction of psoriasis (IMI + 3 mg/kg, D10): 2.0 ± 0.2 | Mean scores of the presence of erythema on the skin of animals at the area of induction of psoriasis (IMI + 3 mg/kg, D11): 1.0 ± 0.0 | Mean scores of the presence of induration on the skin of animals at the area of induction of psoriasis (IMI + 3 mg/kg, D11): 1.4 ± 0.2 | Mean scores of the presence of peeling on the skin of animals at the area of induction of psoriasis (IMI + 3 mg/kg, D11): 1.6 ± 0.2 | Mean scores of the presence of erythema on the skin of animals at the area of induction of psoriasis (IMI + 3 mg/kg, D12): 0.8 ± 0.2 | Mean scores of the presence of induration on the skin of animals at the area of induction of psoriasis (IMI + 3 mg/kg, D12): 1.4 ± 0.2 | Mean scores of the presence of peeling on the skin of animals at the area of induction of psoriasis (IMI + 3 mg/kg, D12): 1.4 ± 0.2 | Mean scores of the presence of erythema on the skin of animals at the area of induction of psoriasis (IMI + 3 mg/kg, D13): 0.3 ± 0.2 | Mean scores of the presence of induration on the skin of animals at the area of induction of psoriasis (IMI + 3 mg/kg, D13): 0.6 ± 0.2 | Mean scores of the presence of peeling on the skin of animals at the area of induction of psoriasis (IMI + 3 mg/kg, D13): 0.9 ± 0.1 | Mean scores of the presence of erythema on the skin of animals at the area of induction of psoriasis (IMI + 3 mg/kg, D14): 0.3 ± 0.2 | Mean scores of the presence of induration on the skin of animals at the area of induction of psoriasis (IMI + 3 mg/kg, D14): 0.3 ± 0.2 | Mean scores of the presence of peeling on the skin of animals at the area of induction of psoriasis (IMI + 3 mg/kg, D14): 0.3 ± 0.2
